From patent US20100136541A1, “IDENTIFICATION AND VERIFICATION OF METHYLATION MARKER SEQUENCES” (Siemens Healthcare Diagnostics Inc., priority 2003, published 2010)

System: CA4 CpG sites
Assay: Bisulfite sequencing of CpG sites, cell lines treated vs. untreated
Type: cell-based, human
Set-up: unit not given here
Protocol: Samples: Paired tumor and adjacent normal tissues from twelve colorectal cancer patients were collected under institutional review board (IRB) approval with patient consent. Tissues were flash frozen in LN2 and stored at −80° C. prior to DNA extraction. All tissues were blinded. Cell lines: A panel of five colorectal cancer cell lines was used. Cells were grown to ˜50% confluence in the appropriate culture medium prior to treatment with 5-aza-2′-deoxycytidine. Optimal concentrations and incubation times (Table 4) were determined by assaying for reduction of p16 promoter methylation using MSP. Cells were harvested, pelleted by centrifugation, and washed twice in Hanks buffered saline solution. Cell pellets were stored at −80° C. Control cells were maintained simultaneously without 5-aza-2′-deoxycytidine treatment. DNA extraction: DNA was purified from tissues and cell lines using the QIAGEN DNeasy® Tissue Kit. Approximately 25-35 mg of each tissue was pulverized under liquid nitrogen before extraction. Elution volume for tissues was 2004. A final volume of […] of cell line DNA was extracted from 15 to 254 of each packed cell pellet (between 10^6-10^7 cells). Purified DNA was stored at −20° C. Bisulfite modification: Modification was performed according to the Frommer method (See Frommer M, et al., PNAS, 89: 1827-1831 (1992).) One μg genomic DNA was diluted into 50 μl with distilled H2O, 5.5 μl of 2M NaOH was added, and the mixture incubated at 37° C. for 10 minutes (to create single stranded DNA). Thirty μl of freshly prepared 10 mM hydroquinone (Sigma) was added to each tube. Five hundred twenty μl of freshly prepared 3M sodium bisulfite (Sigma S-8890), pH 5.0 was then added. Reagents were thoroughly mixed and then covered with mineral oil and incubated at 50° C. for 16 hours. After removing the oil, 1 ml of Wizard DNA Cleanup Resin (Promega A7280) was added to each tube prior to applying the mixture to miniprep column in the DNA Wizard Cleanup kit. The column was washed with 2 ml of 80% isopropanol, and eluted with 50 μl of heated water (60-70° C.). 5.5 μl of 3 M NaOH to was added to each tube, and incubated at room temperature for 5 minutes. Then 1 μl glycogen was added as carrier, 33 μl of 10 M NH4Ac, and 3 volumes of ethanol for DNA precipitation. The pellet was spun down and washed with 70% ethanol, dried and resuspended in 20 μl water. In some instances, the EZ DNA Methylation Kit (Zymo Research) which uses a simplified version of the Frommer method was used. In these cases, 1 μg of genomic DNA was denatured in 0.3M NaOH for 15 minutes at 37° C. followed by incubation at 50° C. for 16 hours in 0.5 mM hydroquinone and a saturated solution of sodium bisulfite at pH 5. Modified DNA was bound to the Zymo column membrane, then desulfonated with 0.3M NaOH for 15 minutes at room temperature. DNA was washed and resuspended with 50 μL 10 mM Tris-HCl-0.1 mM EDTA, pH 7.5 and stored at −20° C. The bisulfite reaction results in conversion of an unmethylated cytosine to uracil. Methylated cytosine remains unchanged after the bisulfite reaction. The resulting bisulfite modified DNA is single stranded. PCR amplification for sequencing: Primers were designed to amplify both methylated and unmethylated fragments of DNA (Table 5). Five μL of modified DNA ( 1/10 of modification reaction) was amplified first in a 254, reaction volume containing 10 mM Tris-HCl pH8.3, 50 mM KCl, 1.5 mM to 2 mM MgCl2, (Applied Biosystems), 0.25 mM each dNTP, 0.5 unit AmpliTaq (Applied Biosystems), and sequencing primers (each at 200 nM). Cycling conditions were 10 minutes at 95° C., 40 cycles of 30 seconds at 95° C., 30 seconds at 54-62° C., 30 seconds at 72° C., subsequently followed by extension for 5 minutes at 72° C.
Reaction products were purified either by the shrimp-alkaline phosphatase-Exol standard method or on the Qiagen Qiaquick PCR clean-up column and eluted in 30 μL 10 mM Tris-HCl, pH8.5. […]

SMILES: Nc1ncn([C@H]2C[C@H](O)[C@@H](CO)O2)c(=O)n1 [5-aza-2′-deoxycytidine]
- CA4 sequencing result (methylation) at CpG site #6 (HT-29 treated): 47
- CA4 sequencing result (methylation) at CpG site #35 (HT-29 treated): 96
- CA4 sequencing result (methylation) at CpG site #43 (HT-29 treated): 77
- CA4 sequencing result (methylation) at CpG site #52 (HT-29 treated): 92
- CA4 sequencing result (methylation) at CpG site #104 (HT-29 treated): 50
- CA4 sequencing result (methylation) at CpG site #120 (HT-29 treated): 67
- CA4 sequencing result (methylation) at CpG site #127 (HT-29 treated): 74
- CA4 sequencing result (methylation) at CpG site #129 (HT-29 treated): 87
- CA4 sequencing result (methylation) at CpG site #140 (HT-29 treated): 84
- CA4 sequencing result (methylation) at CpG site #153 (HT-29 treated): 83
- CA4 sequencing result (methylation) at CpG site #156 (HT-29 treated): 72
- CA4 sequencing result (methylation) at CpG site #158 (HT-29 treated): 87
- CA4 sequencing result (methylation) at CpG site #164 (HT-29 treated): 87
- CA4 sequencing result (methylation) at CpG site #181 (HT-29 treated): 73
- CA4 sequencing result (methylation) at CpG site #190 (HT-29 treated): 68
- CA4 sequencing result (methylation) at CpG site #199 (HT-29 treated): 92
- CA4 sequencing result (methylation) at CpG site #201 (HT-29 treated): 100
- CA4 sequencing result (methylation) at CpG site #204 (HT-29 treated): 94
- CA4 sequencing result (methylation) at CpG site #213 (HT-29 treated): 91
- CA4 sequencing result (methylation) at CpG site #218 (HT-29 treated): 65
- CA4 sequencing result (methylation) at CpG site #220 (HT-29 treated): 79
- CA4 sequencing result (methylation) at CpG site #227 (HT-29 treated): 47
- CA4 sequencing result (methylation) at CpG site #6 (LS123 treated): 75
- CA4 sequencing result (methylation) at CpG site #35 (LS123 treated): 39
- CA4 sequencing result (methylation) at CpG site #43 (LS123 treated): 62
- CA4 sequencing result (methylation) at CpG site #52 (LS123 treated): 69
- CA4 sequencing result (methylation) at CpG site #104 (LS123 treated): 16
- CA4 sequencing result (methylation) at CpG site #120 (LS123 treated): 27
- CA4 sequencing result (methylation) at CpG site #127 (LS123 treated): 70
- CA4 sequencing result (methylation) at CpG site #129 (LS123 treated): 46
- CA4 sequencing result (methylation) at CpG site #140 (LS123 treated): 62
- CA4 sequencing result (methylation) at CpG site #153 (LS123 treated): 43
- CA4 sequencing result (methylation) at CpG site #156 (LS123 treated): 40
- CA4 sequencing result (methylation) at CpG site #158 (LS123 treated): 22
- CA4 sequencing result (methylation) at CpG site #164 (LS123 treated): 62
- CA4 sequencing result (methylation) at CpG site #181 (LS123 treated): 18
- CA4 sequencing result (methylation) at CpG site #190 (LS123 treated): 11
- CA4 sequencing result (methylation) at CpG site #199 (LS123 treated): 17
- CA4 sequencing result (methylation) at CpG site #201 (LS123 treated): 33
- CA4 sequencing result (methylation) at CpG site #204 (LS123 treated): 20
- CA4 sequencing result (methylation) at CpG site #213 (LS123 treated): 29
- CA4 sequencing result (methylation) at CpG site #218 (LS123 treated): 24
- CA4 sequencing result (methylation) at CpG site #220 (LS123 treated): 20
- CA4 sequencing result (methylation) at CpG site #227 (LS123 treated): 11
- CA4 sequencing result (methylation) at CpG site #6 (LS174T treated): 93
- CA4 sequencing result (methylation) at CpG site #35 (LS174T treated): 35
- CA4 sequencing result (methylation) at CpG site #43 (LS174T treated): 39
- CA4 sequencing result (methylation) at CpG site #52 (LS174T treated): 40
- CA4 sequencing result (methylation) at CpG site #104 (LS174T treated): 18
- CA4 sequencing result (methylation) at CpG site #120 (LS174T treated): 22
- CA4 sequencing result (methylation) at CpG site #127 (LS174T treated): 19
- CA4 sequencing result (methylation) at CpG site #129 (LS174T treated): 62
- CA4 sequencing result (methylation) at CpG site #140 (LS174T treated): 28
- CA4 sequencing result (methylation) at CpG site #153 (LS174T treated): 23
- CA4 sequencing result (methylation) at CpG site #156 (LS174T treated): 32
- CA4 sequencing result (methylation) at CpG site #158 (LS174T treated): 10
- CA4 sequencing result (methylation) at CpG site #164 (LS174T treated): 41
- CA4 sequencing result (methylation) at CpG site #181 (LS174T treated): 22
- CA4 sequencing result (methylation) at CpG site #190 (LS174T treated): 61
- CA4 sequencing result (methylation) at CpG site #199 (LS174T treated): 10
- CA4 sequencing result (methylation) at CpG site #201 (LS174T treated): 67
- CA4 sequencing result (methylation) at CpG site #204 (LS174T treated): 3
- CA4 sequencing result (methylation) at CpG site #213 (LS174T treated): 56
- CA4 sequencing result (methylation) at CpG site #218 (LS174T treated): 64
- CA4 sequencing result (methylation) at CpG site #220 (LS174T treated): 45
- CA4 sequencing result (methylation) at CpG site #227 (LS174T treated): 27
- CA4 sequencing result (methylation) at CpG site #6 (SW480 treated): 70
- CA4 sequencing result (methylation) at CpG site #35 (SW480 treated): 61
- CA4 sequencing result (methylation) at CpG site #43 (SW480 treated): 57
- CA4 sequencing result (methylation) at CpG site #52 (SW480 treated): 73
- CA4 sequencing result (methylation) at CpG site #104 (SW480 treated): 13
- CA4 sequencing result (methylation) at CpG site #120 (SW480 treated): 52
- CA4 sequencing result (methylation) at CpG site #127 (SW480 treated): 44
- CA4 sequencing result (methylation) at CpG site #129 (SW480 treated): 18
- CA4 sequencing result (methylation) at CpG site #140 (SW480 treated): 14
- CA4 sequencing result (methylation) at CpG site #153 (SW480 treated): 17
- CA4 sequencing result (methylation) at CpG site #156 (SW480 treated): 53
- CA4 sequencing result (methylation) at CpG site #158 (SW480 treated): 7
- CA4 sequencing result (methylation) at CpG site #164 (SW480 treated): 66
- CA4 sequencing result (methylation) at CpG site #181 (SW480 treated): 27
- CA4 sequencing result (methylation) at CpG site #190 (SW480 treated): 57
- CA4 sequencing result (methylation) at CpG site #199 (SW480 treated): 28
- CA4 sequencing result (methylation) at CpG site #201 (SW480 treated): 56
- CA4 sequencing result (methylation) at CpG site #204 (SW480 treated): 27
- CA4 sequencing result (methylation) at CpG site #213 (SW480 treated): 51
- CA4 sequencing result (methylation) at CpG site #218 (SW480 treated): 35
- CA4 sequencing result (methylation) at CpG site #220 (SW480 treated): 32
- CA4 sequencing result (methylation) at CpG site #227 (SW480 treated): 23
- CA4 sequencing result (methylation) at CpG site #6 (SW620 treated): 64
- CA4 sequencing result (methylation) at CpG site #35 (SW620 treated): 89
- CA4 sequencing result (methylation) at CpG site #43 (SW620 treated): 81
- CA4 sequencing result (methylation) at CpG site #52 (SW620 treated): 77
- CA4 sequencing result (methylation) at CpG site #104 (SW620 treated): 33
- CA4 sequencing result (methylation) at CpG site #120 (SW620 treated): 74
- CA4 sequencing result (methylation) at CpG site #127 (SW620 treated): 67
- CA4 sequencing result (methylation) at CpG site #129 (SW620 treated): 80
- CA4 sequencing result (methylation) at CpG site #140 (SW620 treated): 78
- CA4 sequencing result (methylation) at CpG site #153 (SW620 treated): 60
- CA4 sequencing result (methylation) at CpG site #156 (SW620 treated): 69
- CA4 sequencing result (methylation) at CpG site #158 (SW620 treated): 73
- CA4 sequencing result (methylation) at CpG site #164 (SW620 treated): 92
- CA4 sequencing result (methylation) at CpG site #181 (SW620 treated): 43
- CA4 sequencing result (methylation) at CpG site #190 (SW620 treated): 46
- CA4 sequencing result (methylation) at CpG site #199 (SW620 treated): 10
- CA4 sequencing result (methylation) at CpG site #201 (SW620 treated): 96
- CA4 sequencing result (methylation) at CpG site #204 (SW620 treated): 100
- CA4 sequencing result (methylation) at CpG site #213 (SW620 treated): 96
- CA4 sequencing result (methylation) at CpG site #218 (SW620 treated): 91
- CA4 sequencing result (methylation) at CpG site #220 (SW620 treated): 93
- CA4 sequencing result (methylation) at CpG site #227 (SW620 treated): 37
